Measurements: EP4635952A1, “SOLID FORM OF N-SUBSTITUTED PHENYLSULFONAMIDE COMPOUND” (Shanghai Leado Pharmatech Co. Ltd., priority 2022, dated 2024)
Counter-ions that a name gives are not always drawn. Like-named read-outs stand apart in the source and are kept apart here.

How the values were obtained:
Type in all cases: physicochemical
[1] = Solid-state stability (HPLC purity and XRPD crystal form on storage); details: for Purity (area %) / Initial purity (area %): HPLC; for Initial purity (area %): starting sample before storage
Procedure: About 10 mg of each solid form of the compound was weighed and added to the HPLC vial, respectively, the bottleneck was sealed with a sealing film, and 10 small holes were made on the film. The vial was placed in 25° C/60% RH and 40° C/75% RH environment for 4 weeks, samples were taken in the 1st week, the 2rd week and the 4th week respectively, the purity (by HPLC analysis) and crystal form (by X ray powder diffraction analysis) of the sample were investigated. […]

[2] = Hygroscopicity by dynamic moisture absorption (DVS); details: 25°C/80% RH; for moisture adsorption: DVS, 0% RH-95% RH adsorption curve; for hygroscopicity classification: criteria of 2015 edition of the Chinese Pharmacopoeia (Guidelines for Drug Hygroscopicity Test)
Procedure: Dynamic moisture adsorption (DVS) analysis: the instrument is a DVS Intrinsic produced by SMS company (Surface Measurement Systems); temperature, 25° C.; carrier gas, flow rate: nitrogen, 200 mL/min; mass change per unit time: 0.002%/min; relative humidity range: 0%RH-95%RH.
Dynamic moisture absorption (DVS) was used to test their hygroscopicity.

[3] = Approximate solubility in purified water
Procedure: To determine the approximate solubility, the corresponding solid form sample was added to a 3 mL glass vial. Purified water was incrementally introduced (50, 50, 200, and 700 µL) while vortexing and ultrasonically agitating to facilitate dissolution. […] Solvent addition was halted either when full dissolution was achieved or when the total water volume reached 1 mL. The approximate solubility was then calculated based on the final solvent volume used.

[4] = Dynamic solubility in biorelevant media SGF, FaSSIF or water; details: 37°C, dosed at 10 mg/mL, 1-24 hours, Figure 31
Procedure: The dynamic solubility of fumarate crystal form B, hydrochloride crystal form C, sulfate crystal form D, succinate crystal form E, malate crystal form F, and free crystal form A was assessed at 37°C in biorelevant media SGF, FaSSIF or water. All samples were dosed at 10 mg/mL in each solvent. The samples were sealed and mounted on a rotating disk rotating at 25 rpm, and the rotating disk was placed in a 37° C. incubator. Samples were taken at time points 1, 2, 4, and 24 hours of equilibration, and the filtrate was separated and tested concentration by HPLC and pH, while isolated solids were characterized by XRPD.

[5] = 25°C/60% RH and 40°C/75% RH, 4 weeks

| SMILES | Purity (area %) ([1]; 25°C /60%RH/open, 1 week) | Purity (area %) ([1]; 25°C /60%RH/open, 2 weeks) | Purity (area %) ([1]; 25°C /60%RH/open, 4 weeks) | Purity (area %) ([1]; 40°C /75%RH/open, 1 week) | Purity (area %) ([1]; 40°C /75%RH/open, 2 weeks) | Purity (area %) ([1]; 40°C /75%RH/open, 4 weeks) | Initial purity (area %) [1] [area %] | moisture adsorption [2] [%] | hygroscopicity classification [2] | HPLC purity [1, 5] | crystal form (XRPD) before and after placement [1, 5] | Solubility ([3]; listed as Free form crystal A) | dynamic solubility ([4]; FaSSIF) | dynamic solubility ([4]; water) | Solubility [3] |
| --- | --- | --- | --- | --- | --- | --- | --- | --- | --- | --- | --- | --- | --- | --- | --- |
| CNCc1ccc(NS(=O)(=O)c2ccsc2)c(-c2ccco2)c1 [hydrochloride crystal form C, N-(2-(furan-2-yl)-4-((methylamino)methyl)phenyl)thiophene-3-sulfonamide] | 98.97 | 98.92 | 98.87 | 99.02 | 98.9 | 99 | 99.02 | 5.5 | hygroscopic | – | – | – | – | – | – |
| CNCc1ccc(NS(=O)(=O)c2ccsc2)c(-c2ccco2)c1 [Phosphate crystal form G, N-(2-(furan-2-yl)-4-((methylamino)methyl)phenyl)thiophene-3-sulfonamide] | 98.11 | 98.09 | 98.04 | 98.11 | 98.06 | 98.01 | 98.11 | – | – | – | – | – | – | – | – |
| CNCc1ccc(NS(=O)(=O)c2ccsc2)c(-c2ccco2)c1 [free crystal form A, N-(2-(furan-2-yl)-4-((methylamino)methyl)phenyl)thiophene-3-sulfonamide] | 98.18 | 98.14 | 98.1 | 98.19 | 98.2 | 98.13 | 98.11 | 1.6 | slightly hygroscopic | did not decrease significantly | no detectable crystalline phase changes | S<2.0 mg/mL | negligible dissolution | negligible dissolution | – |
| CNCc1ccc(NS(=O)(=O)c2ccsc2)c(-c2ccco2)c1 [Malonate crystal form K, N-(2-(furan-2-yl)-4-((methylamino)methyl)phenyl) thiophene-3-sulfonamide] | 98.64 | 98.61 | 98.59 | 98.64 | 98.58 | 98.46 | 98.64 | – | – | – | – | – | – | – | – |
| CNCc1ccc(NS(=O)(=O)c2ccsc2)c(-c2ccco2)c1 [succinate crystal form E, N-(2-(furan-2-yl)-4-((methylamino)methyl)phenyl)thiophene-3-sulfonamide] | 98.92 | 98.86 | 98.94 | 98.92 | 98.72 | 98.98 | 98.82 | 0.6 | slightly hygroscopic | – | – | – | – | – | – |
| CNCc1ccc(NS(=O)(=O)c2ccsc2)c(-c2ccco2)c1 [Pyroglutamate crystal form I, N-(2-(furan-2-yl)-4-((methylamino)methyl)phenyl)thiophene-3-sulfonamide] | 98.61 | 98.58 | 98.57 | 98.61 | 98.54 | 98.32 | 98.61 | – | – | – | – | – | – | – | S>38.0 mg/mL |

Continued, values first:

| Purity (area %) ([1]; 25°C /60%RH/open, 1 week) | Purity (area %) ([1]; 25°C /60%RH/open, 2 weeks) | Purity (area %) ([1]; 25°C /60%RH/open, 4 weeks) | Purity (area %) ([1]; 40°C /75%RH/open, 1 week) | Purity (area %) ([1]; 40°C /75%RH/open, 2 weeks) | Purity (area %) ([1]; 40°C /75%RH/open, 4 weeks) | Initial purity (area %) [1] [area %] | moisture adsorption [2] [%] | hygroscopicity classification [2] | HPLC purity [1, 5] | crystal form (XRPD) before and after placement [1, 5] | Solubility ([3]; listed as Free form crystal A) | dynamic solubility ([4]; FaSSIF) | dynamic solubility ([4]; water) | Solubility [3] | SMILES |
| --- | --- | --- | --- | --- | --- | --- | --- | --- | --- | --- | --- | --- | --- | --- | --- |
| 98.72 | 98.7 | 98.79 | 98.74 | 98.75 | 98.68 | 98.72 | 1.4 | slightly hygroscopic | – | – | – | – | – | – | CNCc1ccc(NS(=O)(=O)c2ccsc2)c(-c2ccco2)c1 [malate crystal form F, N-(2-(furan-2-yl)-4-((methylamino)methyl)phenyl)thiophene-3-sulfonamide] |
| 98.74 | 98.65 | 98.78 | 98.76 | 98.65 | 98.78 | 98.77 | 1.3 | slightly hygroscopic | – | – | – | – | – | – | CNCc1ccc(NS(=O)(=O)c2ccsc2)c(-c2ccco2)c1 [sulfate crystal form D, N-(2-(furan-2-yl)-4-((methylamino)methyl)phenyl)thiophene-3-sulfonamide] |
| 98.87 | 98.85 | 98.82 | 98.87 | 98.82 | 98.79 | 98.87 | – | – | – | – | – | – | – | – | CNCc1ccc(NS(=O)(=O)c2ccsc2)c(-c2ccco2)c1 [benzene sulfonate crystal form J, N-(2-(furan-2-yl)-4-((methylamino)methyl)-phenyl)thiophene-3-sulfonamide] |
| 98.71 | 98.62 | 98.6 | 98.7 | 98.6 | 98.53 | 98.71 | – | – | – | – | – | – | – | – | CNCc1ccc(NS(=O)(=O)c2ccsc2)c(-c2ccco2)c1 [Tartrate crystal form H, N-(2-(furan-2-yl)-4-((methylamino)methyl)phenyl)thiophene-3-sulfonamide] |
| 98.53 | 98.47 | 98.57 | 98.4 | 98.5 | 98.52 | 98.55 | 0.2 | slightly hygroscopic | – | – | – | – | – | – | CNCc1ccc(NS(=O)(=O)c2ccsc2)c(-c2ccco2)c1 [fumarate crystal form B, N-(2-(furan-2-yl)-4-((methylamino)methyl)phenyl)thiophene-3-sulfonamide] |
